In patent publication US20230085307A1, “PYRIDAZINONE COMPOUND AND HERBICIDE” (NISSAN CHEMICAL CORPORATION, priority 2019, published 2023):

Experiments:
green foxtail [1] = assay: Test Example 4: herbicidal effect by soil treatment (Table 19, symbol G); format: in vivo, green foxtail (Setaria viridis)
Summary of the method: (§1)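 Emulsion of test compound, water-diluted to predetermined amount, sprayed on soil after sowing (seed depth ~1.5 cm, sterilized diluvial soil). Greenhouse, 25–30° C. Effect graded at three weeks post-spray.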

blackgrass [2] = assay: Test Example 5: herbicidal effect by foliage application, plastic box (Table 20, symbol J); format: in vivo, blackgrass (Alopecurus myosuroides); conditions: foliage application, 320 g/ha
Summary of the method: (§2)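 Post-emergence foliar test in sterilized diluvial soil. Compound applied as water-diluted emulsion at a predetermined rate to 14-day-old plants; evaluation at three weeks.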

southern crabgrass [3] = assay: Test Example 5: herbicidal effect by foliage application, plastic box (Table 20, symbol F); format: in vivo, southern crabgrass (Digitaria ciliaris); conditions: foliage application, 320 g/ha
Summary of the method: as §2

blackgrass [4] = assay: Test Example 4: herbicidal effect by soil treatment (Table 19, symbol J); format: in vivo, blackgrass (Alopecurus myosuroides)
Summary of the method: as §1

barnyard grass [5] = assay: Test Example 4: herbicidal effect by soil treatment (Table 19, symbol H); format: in vivo, barnyard grass (Echinochloa crus-galli)
Summary of the method: as §1

Chinese sprangletop = assay: Test Example 3: herbicidal effect by foliage application, Wagner pot (Table 18, symbol D); format: in vivo, chinese sprangletop (Leptochloa chinensis)
Summary of the method: (§3)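 Plants were sown in alluvial soil held under 0.1–0.5 cm standing water and grown 14 days in a greenhouse at 25–30 °C. An emulsifiable formulation, water-diluted to the set dose, was then sprayed onto the foliage, and effects were scored three weeks later using previously defined criteria.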

velvetleaf [6] = assay: Test Example 4: herbicidal effect by soil treatment (Table 19, symbol M); format: in vivo, velvetleaf (Abutilon theophrasti)
Summary of the method: as §1

windgrass [7] = assay: Test Example 4: herbicidal effect by soil treatment (Table 19, symbol L); format: in vivo, windgrass (Apera spica-venti)
Summary of the method: as §1

persian speedwell [8] = assay: Test Example 5: herbicidal effect by foliage application, plastic box (Table 20, symbol R); format: in vivo, Persian speedwell (Veronica persica); conditions: foliage application, 320 g/ha
Summary of the method: as §2

redroot pigweed [9] = assay: Test Example 5: herbicidal effect by foliage application, plastic box (Table 20, symbol N); format: in vivo, redroot pigweed (Amaranthus retroflexus); conditions: foliage application, 320 g/ha, evaluated three weeks after application
Summary of the method: as §2

southern crabgrass [10] = assay: Test Example 4: herbicidal effect by soil treatment (Table 19, symbol F); format: in vivo, southern crabgrass (Digitaria ciliaris)
Summary of the method: as §1

persian speedwell [11] = assay: Test Example 4: herbicidal effect by soil treatment (Table 19, symbol R); format: in vivo, Persian speedwell (Veronica persica)
Summary of the method: as §1

green foxtail [12] = assay: Test Example 5: herbicidal effect by foliage application, plastic box (Table 20, symbol G); format: in vivo, green foxtail (Setaria viridis); conditions: foliage application, 320 g/ha
Summary of the method: as §2

windgrass [13] = assay: Test Example 5: herbicidal effect by foliage application, plastic box (Table 20, symbol L); format: in vivo, windgrass (Apera spica-venti); conditions: foliage application, 320 g/ha
Summary of the method: as §2

chickweed [14] = assay: Test Example 5: herbicidal effect by foliage application, plastic box (Table 20, symbol P); format: in vivo, common chickweed (Stellaria media); conditions: foliage application, 320 g/ha, evaluated three weeks after application
Summary of the method: as §2

Italian ryegrass [15] = assay: Test Example 4: herbicidal effect by soil treatment (Table 19, symbol K); format: in vivo, Italian ryegrass (Lolium multiflorum)
Summary of the method: as §1

lambsquarters [16] = assay: Test Example 4: herbicidal effect by soil treatment (Table 19, symbol O); format: in vivo, lambsquarters (Chenopodium album)
Summary of the method: as §1

rice flat sedge = assay: Test Example 3: herbicidal effect by foliage application, Wagner pot (Table 18, symbol E); format: in vivo, rice flat sedge (Cyperus iria)
Summary of the method: as §3

barnyard grass [17] = assay: Test Example 5: herbicidal effect by foliage application, plastic box (Table 20, symbol H); format: in vivo, barnyard grass (Echinochloa crus-galli); conditions: foliage application, 320 g/ha
Summary of the method: as §2

wild oat [18] = assay: Test Example 4: herbicidal effect by soil treatment (Table 19, symbol I); format: in vivo, wild oat (Avena fatua)
Summary of the method: as §1

velvetleaf [19] = assay: Test Example 5: herbicidal effect by foliage application, plastic box (Table 20, symbol M); format: in vivo, velvetleaf (Abutilon theophrasti); conditions: foliage application, 320 g/ha
Summary of the method: as §2

lambsquarters [20] = assay: Test Example 5: herbicidal effect by foliage application, plastic box (Table 20, symbol O); format: in vivo, lambsquarters (Chenopodium album); conditions: foliage application, 320 g/ha
Summary of the method: as §2

Italian ryegrass [21] = assay: Test Example 5: herbicidal effect by foliage application, plastic box (Table 20, symbol K); format: in vivo, Italian ryegrass (Lolium multiflorum); conditions: foliage application, 320 g/ha
Summary of the method: as §2

barnyard grass [22] = assay: Test Example 3: herbicidal effect by foliage application, Wagner pot (Table 18, symbol H); format: in vivo, barnyard grass (Echinochloa crus-galli)
Summary of the method: as §3

wild oat [23] = assay: Test Example 5: herbicidal effect by foliage application, plastic box (Table 20, symbol I); format: in vivo, wild oat (Avena fatua); conditions: foliage application, 320 g/ha
Summary of the method: as §2

redroot pigweed [24] = assay: Test Example 4: herbicidal effect by soil treatment (Table 19, symbol N); format: in vivo, redroot pigweed (Amaranthus retroflexus)
Summary of the method: as §1

chickweed [25] = assay: Test Example 4: herbicidal effect by soil treatment (Table 19, symbol P); format: in vivo, common chickweed (Stellaria media); conditions: AAH 320 g/ha
Summary of the method: as §1

[26] = amount of applied herbicide 320 g/ha
[27] = evaluated three weeks after application

CCCC(=O)Oc1c(C)nn(C)c(=O)c1-c1c(-c2cccc(OC(C)C)c2)sc2ccc(F)cc12 [2-216]
G: green foxtail, herbicidal effect rating (green foxtail [1]; [26]): 2 (Herbicidal rate of 20% or more and less than 40%)
herbicidal effect on J: blackgrass (criteria 0-5) (blackgrass [2]; [27]): 0 (Herbicidal rate of 5% or less (almost no effect))
herbicidal effect on F: southern crabgrass (criteria 0-5) (southern crabgrass [3]; [27]): 5 (Herbicidal rate of 90% or more (almost completely withered))
J: blackgrass, herbicidal effect rating (blackgrass [4]; [26]): 0 (Herbicidal rate of 5% or less (almost no effect))
H: barnyard grass, herbicidal effect rating (barnyard grass [5]; [26]): 2 (Herbicidal rate of 20% or more and less than 40%)
herbicidal effect on D: Chinese sprangletop (Chinese sprangletop; [26]): 3 (Herbicidal rate of 40% or more and less than 70%)
M: velvetleaf, herbicidal effect rating (velvetleaf [6]; [26]): 2 (Herbicidal rate of 20% or more and less than 40%)
L: windgrass, herbicidal effect rating (windgrass [7]; [26]): 0 (Herbicidal rate of 5% or less (almost no effect))
herbicidal effect on R: persian speedwell (criteria 0-5) (persian speedwell [8]; [27]): 5 (Herbicidal rate of 90% or more (almost completely withered))
herbicidal effect on N: redroot pigweed (criteria 0-5) (redroot pigweed [9]): 5 (Herbicidal rate of 90% or more (almost completely withered))
F: southern crabgrass, herbicidal effect rating (southern crabgrass [10]; [26]): 3 (Herbicidal rate of 40% or more and less than 70%)
R: persian speedwell, herbicidal effect rating (persian speedwell [11]; [26]): 5 (Herbicidal rate of 90% or more (almost completely withered))
herbicidal effect on G: green foxtail (criteria 0-5) (green foxtail [12]; [27]): 5 (Herbicidal rate of 90% or more (almost completely withered))
herbicidal effect on L: windgrass (criteria 0-5) (windgrass [13]; [27]): 3 (Herbicidal rate of 40% or more and less than 70%)
herbicidal effect on P: chickweed (criteria 0-5) (chickweed [14]): 5 (Herbicidal rate of 90% or more (almost completely withered))
K: Italian ryegrass, herbicidal effect rating (Italian ryegrass [15]; [26]): 4 (Herbicidal rate of 70% or more and less than 90%)
O: lambsquarters, herbicidal effect rating (lambsquarters [16]; [26]): 0 (Herbicidal rate of 5% or less (almost no effect))
herbicidal effect on E: rice flat sedge (rice flat sedge; [26]): 4 (Herbicidal rate of 70% or more and less than 90%)
herbicidal effect on H: barnyard grass (criteria 0-5) (barnyard grass [17]; [27]): 4 (Herbicidal rate of 70% or more and less than 90%)
I: wild oat, herbicidal effect rating (wild oat [18]; [26]): 0 (Herbicidal rate of 5% or less (almost no effect))
herbicidal effect on M: velvetleaf (criteria 0-5) (velvetleaf [19]; [27]): 3 (Herbicidal rate of 40% or more and less than 70%)
herbicidal effect on O: lambsquarters (criteria 0-5) (lambsquarters [20]; [27]): 3 (Herbicidal rate of 40% or more and less than 70%)
herbicidal effect on K: Italian ryegrass (criteria 0-5) (Italian ryegrass [21]; [27]): 4 (Herbicidal rate of 70% or more and less than 90%)
herbicidal effect on H: barnyard grass (barnyard grass [22]; [26]): 5 (Herbicidal rate of 90% or more (almost completely withered))
herbicidal effect on I: wild oat (criteria 0-5) (wild oat [23]; [27]): 0 (Herbicidal rate of 5% or less (almost no effect))
N: redroot pigweed, herbicidal effect rating (redroot pigweed [24]; [26]): 3 (Herbicidal rate of 40% or more and less than 70%)

COCCSCc1ccc(-c2sc3ccccc3c2-c2c(O)c(C)nn(C)c2=O)cc1 [1-251]
G: green foxtail, herbicidal effect rating (green foxtail [1]; AAH 320 g/ha): 0 (Herbicidal rate of 5% or less (almost no effect))
effect on blackgrass (J) (blackgrass [2]; 3 weeks after application): 3 (Herbicidal rate of 40% or more and less than 70%)
effect on southern crabgrass (F) (southern crabgrass [3]; 3 weeks after application): 1 (Herbicidal rate of 5% or more and less than 20%)
J: blackgrass, herbicidal effect rating (blackgrass [4]; AAH 320 g/ha): 0 (Herbicidal rate of 5% or less (almost no effect))
H: barnyard grass, herbicidal effect rating (barnyard grass [5]; AAH 320 g/ha): 0 (Herbicidal rate of 5% or less (almost no effect))
herbicidal effect on D (Chinese sprangletop), rating 0-5 (Chinese sprangletop; 320 g/ha): 3 (Herbicidal rate of 40% or more and less than 70%)
M: velvetleaf, herbicidal effect rating (velvetleaf [6]; AAH 320 g/ha): 0 (Herbicidal rate of 5% or less (almost no effect))
L: windgrass, herbicidal effect rating (windgrass [7]; AAH 320 g/ha): 0 (Herbicidal rate of 5% or less (almost no effect))
effect on persian speedwell (R) (persian speedwell [8]; 3 weeks after application): 5 (Herbicidal rate of 90% or more (almost completely withered))
F: southern crabgrass, herbicidal effect rating (southern crabgrass [10]; AAH 320 g/ha): 0 (Herbicidal rate of 5% or less (almost no effect))
R: persian speedwell, herbicidal effect rating (persian speedwell [11]; AAH 320 g/ha): 4 (Herbicidal rate of 70% or more and less than 90%)
effect on green foxtail (G) (green foxtail [12]; 3 weeks after application): 5 (Herbicidal rate of 90% or more (almost completely withered))
effect on windgrass (L) (windgrass [13]; 3 weeks after application): 0 (Herbicidal rate of 5% or less (almost no effect))
K: Italian ryegrass, herbicidal effect rating (Italian ryegrass [15]; AAH 320 g/ha): 0 (Herbicidal rate of 5% or less (almost no effect))
O: lambsquarters, herbicidal effect rating (lambsquarters [16]; AAH 320 g/ha): 0 (Herbicidal rate of 5% or less (almost no effect))
herbicidal effect on E (rice flat sedge), rating 0-5 (rice flat sedge; 320 g/ha): 3 (Herbicidal rate of 40% or more and less than 70%)
effect on barnyard grass (H) (barnyard grass [17]; 3 weeks after application): 4 (Herbicidal rate of 70% or more and less than 90%)
I: wild oat, herbicidal effect rating (wild oat [18]; AAH 320 g/ha): 0 (Herbicidal rate of 5% or less (almost no effect))
effect on velvetleaf (M) (velvetleaf [19]; 3 weeks after application): 5 (Herbicidal rate of 90% or more (almost completely withered))
effect on lambsquarters (O) (lambsquarters [20]; 3 weeks after application): 4 (Herbicidal rate of 70% or more and less than 90%)
effect on Italian ryegrass (K) (Italian ryegrass [21]; 3 weeks after application): 4 (Herbicidal rate of 70% or more and less than 90%)
P: chickweed, herbicidal effect rating (chickweed [25]): 0 (Herbicidal rate of 5% or less (almost no effect))
herbicidal effect on H (barnyard grass), rating 0-5 (barnyard grass [22]; 320 g/ha): 5 (Herbicidal rate of 90% or more (almost completely withered))
effect on wild oat (I) (wild oat [23]; 3 weeks after application): 0 (Herbicidal rate of 5% or less (almost no effect))
N: redroot pigweed, herbicidal effect rating (redroot pigweed [24]; AAH 320 g/ha): 0 (Herbicidal rate of 5% or less (almost no effect))
